Experimental data reported in patent US20260000692A1, “Substituted N-(Pyridin-2-yl)Acetamide Derivatives as CDK12/13 Inhibitors” (Aurigene Oncology Limited, priority 2022, published 2026).

Target: CDK12 (Homo sapiens, UniProt Q9NYV4)
Experiment: Biochemical assay for CDK12 (LANCE TR-FRET, IC50 determination)
Conditions: for IC50: CDK12, IC50 class, read-out: IC50 μM (in range); for inhibition at 10 µM: compound at 10 μM, read-out: CDK12 % Inhibition @ 10 μM
Summary of the method: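 30 nM CDK12 phosphorylated 100 nM ULight-4E-BP1 (Thr37/Thr46) peptide at 100 µM ATP, as printed, in HEPES pH 7.5 buffer with MgCl2 and DTT. Compound and enzyme were preincubated 60 min, then reacted 60 min at room temperature before stopping with EDTA and Eu anti-phospho antibody. TR-FRET 665/615 ratio gave sigmoidal IC50 fits.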

Chain of CDK12 (Q9NYV4 whole entry): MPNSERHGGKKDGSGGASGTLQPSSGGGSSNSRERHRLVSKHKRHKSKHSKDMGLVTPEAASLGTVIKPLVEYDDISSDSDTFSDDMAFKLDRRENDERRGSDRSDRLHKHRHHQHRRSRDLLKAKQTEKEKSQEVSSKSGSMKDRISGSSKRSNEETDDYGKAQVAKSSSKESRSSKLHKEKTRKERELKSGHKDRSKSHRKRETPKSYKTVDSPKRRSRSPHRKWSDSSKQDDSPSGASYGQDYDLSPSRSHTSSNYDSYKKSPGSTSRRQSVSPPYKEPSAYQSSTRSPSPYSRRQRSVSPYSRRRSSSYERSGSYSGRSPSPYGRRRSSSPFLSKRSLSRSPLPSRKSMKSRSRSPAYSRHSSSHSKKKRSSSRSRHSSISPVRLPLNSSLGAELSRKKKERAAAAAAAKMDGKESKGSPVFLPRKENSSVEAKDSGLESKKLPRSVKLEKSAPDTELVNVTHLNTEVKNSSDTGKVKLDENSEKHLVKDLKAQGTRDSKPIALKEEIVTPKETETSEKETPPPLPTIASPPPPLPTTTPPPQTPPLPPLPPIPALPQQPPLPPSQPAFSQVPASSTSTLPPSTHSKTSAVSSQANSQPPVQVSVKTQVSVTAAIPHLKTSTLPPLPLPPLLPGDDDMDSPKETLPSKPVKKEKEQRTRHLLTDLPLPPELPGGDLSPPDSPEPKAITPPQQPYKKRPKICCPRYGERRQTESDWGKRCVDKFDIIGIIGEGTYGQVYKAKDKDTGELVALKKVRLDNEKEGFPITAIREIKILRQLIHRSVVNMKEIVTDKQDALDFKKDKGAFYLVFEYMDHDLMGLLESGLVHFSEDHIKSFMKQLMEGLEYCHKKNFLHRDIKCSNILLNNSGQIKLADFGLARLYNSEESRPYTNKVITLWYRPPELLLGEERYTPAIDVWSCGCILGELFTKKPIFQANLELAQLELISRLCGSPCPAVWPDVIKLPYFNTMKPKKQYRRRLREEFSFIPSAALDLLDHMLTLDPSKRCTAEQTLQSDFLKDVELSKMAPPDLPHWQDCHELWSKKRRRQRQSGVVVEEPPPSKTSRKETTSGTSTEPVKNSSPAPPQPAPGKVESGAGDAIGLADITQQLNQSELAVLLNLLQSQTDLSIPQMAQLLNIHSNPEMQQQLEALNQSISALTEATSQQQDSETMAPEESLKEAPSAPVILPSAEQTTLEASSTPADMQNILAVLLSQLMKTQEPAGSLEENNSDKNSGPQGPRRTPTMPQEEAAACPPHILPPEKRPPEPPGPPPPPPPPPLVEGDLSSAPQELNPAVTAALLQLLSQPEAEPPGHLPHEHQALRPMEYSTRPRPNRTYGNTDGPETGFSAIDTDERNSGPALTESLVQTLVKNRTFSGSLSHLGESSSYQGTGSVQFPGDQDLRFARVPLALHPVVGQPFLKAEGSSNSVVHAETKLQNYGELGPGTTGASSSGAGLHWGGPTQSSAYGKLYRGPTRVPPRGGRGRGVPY
Chain of CDK12 (O75909 whole entry partner): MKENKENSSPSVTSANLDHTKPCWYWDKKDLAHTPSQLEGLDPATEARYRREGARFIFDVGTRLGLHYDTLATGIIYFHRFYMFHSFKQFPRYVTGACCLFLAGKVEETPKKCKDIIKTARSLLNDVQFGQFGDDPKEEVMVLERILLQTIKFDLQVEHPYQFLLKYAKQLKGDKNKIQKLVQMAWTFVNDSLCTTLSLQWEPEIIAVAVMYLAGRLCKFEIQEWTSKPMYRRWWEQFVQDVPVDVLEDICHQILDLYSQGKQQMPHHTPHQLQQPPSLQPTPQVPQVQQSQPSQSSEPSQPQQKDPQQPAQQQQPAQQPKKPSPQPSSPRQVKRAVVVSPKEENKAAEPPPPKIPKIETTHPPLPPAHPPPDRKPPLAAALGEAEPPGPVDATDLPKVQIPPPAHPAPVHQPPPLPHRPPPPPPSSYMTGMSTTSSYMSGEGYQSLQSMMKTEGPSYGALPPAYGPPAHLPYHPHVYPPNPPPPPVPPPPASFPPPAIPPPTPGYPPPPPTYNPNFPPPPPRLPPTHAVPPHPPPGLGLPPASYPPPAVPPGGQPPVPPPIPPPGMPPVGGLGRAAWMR

SMILES	IC50 [µM]	inhibition at 10 µM [%]
CNC(=O)C(C)Oc1cc(NC(=O)Cc2ccc(-c3ccnc(C#N)c3)nc2)ncc1Cl (centres unmarked) [Compound 144, 2-((5-chloro-2-(2-(2′-cyano-[2,4′-bipyridin]-5-yl)acetamido)pyridin-4-yl)oxy)-N-methylpropanamide]	0.01 to 0.1	92
N#Cc1cc(-c2ccc(CC(=O)Nc3cc(O[C@@H]4CCOC4)c(Cl)cn3)cn2)ccn1 [Compound 145, (R)-N-(5-chloro-4-((tetrahydrofuran-3-yl)oxy)pyridin-2-yl)-2-(2′-cyano-[2,4′-bipyridin]-5-yl)acetamide]	0.01 to 0.1	79
N#Cc1ccc(-c2ccc(CC(=O)Nc3cc(O[C@@H]4CCOC4)c(Cl)cn3)cn2)cn1 [Compound 146, (R)-N-(5-chloro-4-((tetrahydrofuran-3-yl)oxy)pyridin-2-yl)-2-(6′-cyano-[2,3′-bipyridin]-5-yl)acetamide]	0.01 to 0.1	90
CNC(=O)[C@H](C)Oc1cc(NC(=O)Cc2ccc(-c3ccc(C#N)nc3)nc2)ncc1Cl [Compound 147, (S)-2-((5-chloro-2-(2-(6′-cyano-[2,3′-bipyridin]-5-yl)acetamido)pyridin-4-yl)oxy)-N-methylpropanamide]	0.01 to 0.1	89
CNC(=O)[C@H](C)Oc1cc(NC(=O)Cc2ccc(-c3ccnc(C#N)c3)nc2)ncc1Cl [Compound 148, (S)-2-((5-chloro-2-(2-(2′-cyano-[2,4′-bipyridin]-5-yl)acetamido)pyridin-4-yl)oxy)-N-methylpropanamide]	0.01 to 0.1	89
COc1cc(NC(=O)Cc2ccc(-c3ccc(C#N)c(F)c3)nc2)ncc1Cl [Compound 149, N-(5-chloro-4-methoxypyridin-2-yl)-2-(6-(4-cyano-3-fluorophenyl)pyridin-3-yl)acetamide]		54
N#Cc1ncc(-c2ccc(CC(=O)Nc3cc(O[C@@H]4CCOC4)c(Cl)cn3)cn2)cn1 [Compound 150, (R)-N-(5-chloro-4-((tetrahydrofuran-3-yl)oxy)pyridin-2-yl)-2-(6-(2-cyanopyrimidin-5-yl)pyridin-3-yl)acetamide]	0.01 to 0.1	83
CNC(=O)[C@H](C)Oc1cc(NC(=O)Cc2ccc(-c3cnc(C#N)nc3)nc2)ncc1Cl [Compound 151, (S)-2-((5-chloro-2-(2-(6-(2-cyanopyrimidin-5-yl)pyridin-3-yl)acetamido)pyridin-4-yl)oxy)-N-methylpropanamide]	0.01 to 0.1	79
COc1cc(NC(=O)Cc2ccc(-c3cccc(C#N)n3)cc2)ncc1Cl [Compound 152, N-(5-chloro-4-methoxypyridin-2-yl)-2-(4-(6-cyanopyridin-2-yl)phenyl)acetamide]	> 0.1	
COc1cc(NC(=O)Cc2ccc(-c3cccc(C#N)n3)c(F)c2)ncc1Cl [Compound 153, N-(5-chloro-4-methoxypyridin-2-yl)-2-(4-(6-cyanopyridin-2-yl)-3-fluorophenyl)acetamide]		34
N#Cc1cccc(-c2ccc(CC(=O)Nc3cc(O[C@@H]4CCOC4)c(Cl)cn3)cn2)n1 [Compound 154, (R)-N-(5-chloro-4-((tetrahydrofuran-3-yl)oxy)pyridin-2-yl)-2-(6′-cyano-[2,2′-bipyridin]-5-yl)acetamide]	< 0.01	77
COc1cc(NC(=O)Cc2ccc(-c3cccc(C#N)n3)nc2)ncc1Cl [Compound 156, N-(5-chloro-4-methoxypyridin-2-yl)-2-(6′-cyano-[2,2′-bipyridin]-5-yl)acetamide]	< 0.01	80
COc1cc(NC(=O)Cc2ccc(-c3cncc(C#N)n3)nc2)ncc1Cl [Compound 157, N-(5-chloro-4-methoxypyridin-2-yl)-2-(6-(6-cyanopyrazin-2-yl)pyridin-3-yl)acetamide]	< 0.01	84
